Patent US11415579B2, “Assay for measuring a rate of reaction between a target and a ligand candidate” (Imperial College Innovations Ltd., priority 2016, dated 2022)
Several values for one entry are separate records, joined by “and”; a condition that tells them apart may be missing. Identical values can stand only once.

Tests used:
Cdk2(F80C, C177A) [1] = biological target: T1, Cdk2(F80C, C177A) (Homo sapiens, UniProt P24941, C177A/F80C); test: Intact protein mass spectrometry of labelling; format: binding; conditions: after 2 hours of incubation
T1 construct: poly-histidine; made in house; host or cells: E. coli
Source text: Mass spectrometry and X-ray crystallography were used to validate the binding of a hit ligand identified by the present method.
From the screen of Cdk2(F80C, C177A), we identified EL1071 as a hit molecule (rate enhancement relative to GSH=60.5).

[2] = Kinetic thiol consumption assay with model thiol glutathione; format: physicochemical; set-up: Rate constant with glutathione (k(GSH)): unit not given here; conditions: for Rate constant with glutathione (k(GSH)): 500 μM ligand, 5 μM thiol, phosphate buffer pH 8; for Rate constant with Glutathione: Protein: Glutathione, cysteine position NA, in h-1
Summary of the method: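 First, 5 μM glutathione in degassed phosphate buffer (pH 8) receives immobilized TCEP beads (2% v/v). Then acrylamide is added and plates incubate 1 h at room temperature. Finally, fluorescence (380/470 nm) is normalized and fitted to first-order decay for rate constants.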

Cdk2(S181C) (C177A) = biological target: T2, Cdk2(S181C) (C177A) (Homo sapiens, UniProt P24941, C177A/S181C); test: Kinetic thiol consumption assay with Cdk2 mutant S181C; format: binding; set-up: key to Rate enhancement, Cdk2 S181C: rate constant with Cdk2 ÷ rate constant with model thiol (fold); conditions: for Rate enhancement, Cdk2 S181C / Rate constant with Cdk2 S181C: additional mutation C177A; for Rate constant with Cdk2 S181C: Protein: Cdk2, cysteine position S181C, in h^-1
T2 construct: poly-histidine; made in house; host or cells: E. coli
Summary of the method: (§1)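 Read-out is fluorescence at 380/470 nm, taken after 1 h at room temperature and normalized to a DMSO/thiol-only control over time. Thiol (5 μM Cdk2 mutant or model thiol) was in degassed pH 8 phosphate buffer with 2% v/v TCEP beads. Acrylamide rate constants for Cdk2 were divided by those with model thiol.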

Cdk2(C177A, F80C) = biological target: T3, Cdk2(C177A, F80C) (Homo sapiens, UniProt P24941, C177A/F80C); test: Kinetic thiol consumption assay with Cdk2 mutant F80C, incl. kobs versus concentration (Kd, k2); format: binding; set-up: key to Rate enhancement, Cdk2 F80C: Cdk2 rate constant divided by model-thiol rate constant; conditions: for Rate enhancement, Cdk2 F80C / Rate constant with Cdk2 F80C: additional mutation C177A; for Rate constant with Cdk2 F80C: Protein: Cdk2, cysteine position F80C, in h^-1
T3 construct: poly-histidine; made in house; host or cells: E. coli
Summary of the method: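 His-tagged Cdk2(C177A/F80C) from E. coli or model thiol, 5 μM in degassed phosphate buffer pH 8 with TCEP beads, reacted with acrylamide ligands; fluorescence (ex/em 380/470 nm) normalized to DMSO control and fitted to first-order decay for kobs. Kd and k2 obtained from hyperbolic fit of kobs versus ligand concentration.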

Cdk2[C177A, F80C, K278C] = biological target: T4, Cdk2[C177A, F80C, K278C] (Homo sapiens, UniProt P24941, C177A/F80C/K278C); test: Kinetic thiol consumption assay with mutant Cdk2 as model thiol; format: binding; set-up: unit not given here; conditions: 500 μM ligand, 5 μM thiol, phosphate buffer pH 8
T4 construct: poly-histidine; made in house; host or cells: E. coli
Summary of the method: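 First-order rate constants were derived by exponential-decay fitting of DMSO/thiol-normalized fluorescence (380/470 nm) over time at room temperature. Thiol was 5 μM E. coli-expressed His-tagged Cdk2 mutant C177A/F80C/K278C in degassed pH 8 phosphate buffer containing 2% v/v TCEP beads.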

[3] = biological target: T5, human cyclin-dependent kinase 2 (Cdk2) (Homo sapiens, UniProt P24941); test: Kinetic thiol consumption assay with wild type Cdk2 (C177); format: binding; set-up: key to Rate enhancement, Cdk2 WT: k(Cdk2) divided by k(model thiol); Rate constant with Cdk2 (k(Cdk2)): unit not given here; conditions: for Rate constant with Cdk2 (k(Cdk2)): 500 μM ligand, 5 μM thiol, phosphate buffer pH 8; for Rate enhancement, Cdk2 WT: no additional mutations; for Rate constant with Cdk2 WT: Protein: Cdk2, cysteine position WT, in h^-1; for k(Cdk2)/k(Cdk2_mut) rate enhancement: model thiol Cdk2[C177A, F80C, K278C]; for k(Cdk2)/k(GSH) rate enhancement: model thiol glutathione
T5 construct: poly-histidine; made in house; host or cells: E. coli
Summary of the method: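 His-tagged human Cdk2 (single surface cysteine C177), expressed in E. coli, or a model thiol at 5 μM in degassed phosphate buffer pH 8 was pre-treated with immobilized TCEP beads (2% v/v) before acrylamide addition. Fluorescence (ex/em 380/470 nm) was read after 1 h at room temperature, normalized to DMSO/thiol-only control and plotted versus time.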

Cdk2(T182C) (C177A) = biological target: T6, Cdk2(T182C) (C177A) (Homo sapiens, UniProt P24941, C177A/T182C); test: Kinetic thiol consumption assay with Cdk2 mutant T182C; format: binding; set-up: key to Rate enhancement, Cdk2 T182C: rate constant with Cdk2 ÷ rate constant with model thiol (fold); conditions: for Rate enhancement, Cdk2 T182C / Rate constant with Cdk2 T182C: additional mutation C177A; for Rate constant with Cdk2 T182C: Protein: Cdk2, cysteine position T182C, in h^-1
T6 construct: poly-histidine; made in house; host or cells: E. coli
Summary of the method: as §1

Cdk2(H71C) (C177A) = biological target: T7, Cdk2(H71C) (C177A) (Homo sapiens, UniProt P24941, C177A/H71C); test: Kinetic thiol consumption assay with Cdk2 mutant H71C; format: binding; set-up: key to Rate enhancement, Cdk2 H71C: rate constant with Cdk2 ÷ rate constant with model thiol (fold); conditions: for Rate enhancement, Cdk2 H71C / Rate constant with Cdk2 H71C: additional mutation C177A; for Rate constant with Cdk2 H71C: Protein: Cdk2, cysteine position H71C, in h^-1
T7 construct: poly-histidine; made in house; host or cells: E. coli
Summary of the method: as §1

Cdk2(S276C) (C177A) = biological target: T8, Cdk2(S276C) (C177A) (Homo sapiens, UniProt P24941, C177A/S276C); test: Kinetic thiol consumption assay with Cdk2 mutant S276C; format: binding; set-up: key to Rate enhancement, Cdk2 S276C: rate constant with Cdk2 ÷ rate constant with model thiol (fold); conditions: for Rate enhancement, Cdk2 S276C / Rate constant with Cdk2 S276C: additional mutation C177A; for Rate constant with Cdk2 S276C: Protein: Cdk2, cysteine position S276C, in h^-1
T8 construct: poly-histidine; made in house; host or cells: E. coli
Summary of the method: as §1

Cdk2(N272C) (C177A) = biological target: T9, Cdk2(N272C) (C177A) (Homo sapiens, UniProt P24941, C177A/N272C); test: Kinetic thiol consumption assay with Cdk2 mutant N272C; format: binding; set-up: key to Rate enhancement, Cdk2 N272: rate constant with Cdk2 ÷ rate constant with model thiol (fold); conditions: for Rate enhancement, Cdk2 N272: Cdk2 N272, additional mutation C177A; for Rate constant with Cdk2 N272C: Protein: Cdk2, cysteine position N272C, additional mutation C177A, in h^-1
T9 construct: poly-histidine; made in house; host or cells: E. coli
Summary of the method: as §1

Cdk2(R122C) (C177A) = biological target: T10, Cdk2(R122C) (C177A) (Homo sapiens, UniProt P24941, C177A/R122C); test: Kinetic thiol consumption assay with Cdk2 mutant R122C; format: binding; set-up: key to Rate enhancement, Cdk2 R122C: rate constant with Cdk2 ÷ rate constant with model thiol (fold); conditions: for Rate enhancement, Cdk2 R122C / Rate constant with Cdk2 R122C: additional mutation C177A; for Rate constant with Cdk2 R122C: Protein: Cdk2, cysteine position R122C, in h-1
T10 construct: poly-histidine; made in house; host or cells: E. coli
Summary of the method: as §1

Cdk2(F80C, C177A) [4] = biological target: T1, Cdk2(F80C, C177A); test: Kinase assay; format: biochemical; conditions: Cdk2(F80C, C177A) labelled with ligand
Source text: Again, 1-Cdk2 refers to Cdk2(F80C, C177A) labelled with EL1071 (FIG. 10(c)). Finally, the EL1071-Cdk2(F80C, C177A) complex was crystallized and the structure determined by X-ray crystallography (FIG. 11). This confirms that the ligand binds to the cysteine residue at F80C and blocks the protein's active site leading to the observed inhibition.

[5] = system: Cdk2 constructs (except Cdk(WT)); test: Average of several thiols (Cdk2 constructs except WT) as model thiol; format: binding, human; conditions: average over all Cdk2 constructs except Cdk2(WT)
Procedure: In Example 1 rate enhancements were calculated relative to the control thiol, glutathione.
As an example, the rate constant for ligand candidate EL1157 in reaction with all the Cdk2 constructs (except Cdk(WT)) were averaged and then compared to the rate constant with Cdk2(WT).

| Compound | Rate constant with glutathione (k(GSH)) [2] | Rate constant with Glutathione [2] | Rate enhancement, Cdk2 S181C (Cdk2(S181C) (C177A)) | Rate constant with Cdk2 S181C (Cdk2(S181C) (C177A)) | Rate enhancement, Cdk2 F80C (Cdk2(C177A, F80C)) | Rate constant with Cdk2 F80C (Cdk2(C177A, F80C)) | Rate constant with Cdk2[C177A, F80C, K278C] (k(Cdk2_mut)) (Cdk2[C177A, F80C, K278C]) | Rate constant with Cdk2 (k(Cdk2)) [3] | Rate enhancement, Cdk2 WT [3] | Rate constant with Cdk2 WT [3] | k(Cdk2)/k(Cdk2_mut) rate enhancement [3] | k(Cdk2)/k(GSH) rate enhancement [3] | Rate enhancement, Cdk2 T182C (Cdk2(T182C) (C177A)) | Rate constant with Cdk2 T182C (Cdk2(T182C) (C177A)) | Rate enhancement, Cdk2 H71C (Cdk2(H71C) (C177A)) | Rate constant with Cdk2 H71C (Cdk2(H71C) (C177A)) | Rate enhancement, Cdk2 S276C (Cdk2(S276C) (C177A)) | Rate constant with Cdk2 S276C (Cdk2(S276C) (C177A)) | Rate enhancement, Cdk2 N272 (Cdk2(N272C) (C177A)) | Rate constant with Cdk2 N272C (Cdk2(N272C) (C177A)) | other results |
| --- | --- | --- | --- | --- | --- | --- | --- | --- | --- | --- | --- | --- | --- | --- | --- | --- | --- | --- | --- | --- | --- |
| C=CC(=O)N1CCCc2cc(C(=O)OC)ccc21 [EL-1071] | 0.051 and 0.05049 | 0.05081 | 0.5036 | 0.02559 | 60.48 | 3.073 | 0.323 | 0.433 | 8.522 | 0.433 | 1.341 | 8.5 and 8.576 | 7.764 | 0.3945 | 7.215 | 0.3666 | 1.09 | 0.05538 | 0.6083 | 0.03091 | modification of Cdk2(F80C, C177A) by intact protein mass spectrometry (Cdk2(F80C, C177A) [1]): completely monomodified; hit classification against Cdk2(F80C, C177A) (Cdk2(C177A, F80C)): hit molecule; rate enhancement relative to GSH (Cdk2(C177A, F80C); Cdk2(F80C, C177A) versus GSH): 60.5; hit classification, Example 1 ([3]; hits defined as kCdk2/kGSH>5.8 (3 standard deviations over the mean)): hit fragment; Rate enhancement, Cdk2 R122C (Cdk2(R122C) (C177A)): 0.2848; Rate constant with Cdk2 R122C (Cdk2(R122C) (C177A)): 0.01447; inhibition of kinase activity (Cdk2(F80C, C177A) [4]): completely inhibited |
| C=CC(=O)N1CCN(C(=O)OC(C)(C)C)c2ccccc21 [EL-1157] | 0.126 | 0.06726 | 0.2053 | 0.01381 | 0.5847 | 0.03933 | 0.3046 | 0.2006 | 2.982 | 0.2006 | 0.6586 | 1.592 | 2.337 | 0.1572 | 0.3892 | 0.02618 | 1.046 | 0.07038 | 0.04255 | 0.002862 | Rate constant k(Cdk2(S181C)) (Cdk2(S181C) (C177A)): 0.0138 h⁻¹; Rate constant k(Cdk2(F80C)) (Cdk2(C177A, F80C)): 0.0393 h⁻¹; Rate constant k(Cdk2(WT)) [3]: 0.2006 h⁻¹; k(Cdk2(WT))/k(average) ([3]; average of multiple Cdk2 mutants as control thiol): 4.46; Rate constant k(Cdk2(T182C)) (Cdk2(T182C) (C177A)): 0.1572 h⁻¹; Rate constant k(Cdk2(H71C)) (Cdk2(H71C) (C177A)): 0.0261 h⁻¹; Rate constant k(Cdk2(S276C)) (Cdk2(S276C) (C177A)): 0.0704 h⁻¹; Rate constant k(average) [5]: 0.0449 h⁻¹; Rate constant k(Cdk2(N272C)) (Cdk2(N272C) (C177A)): 0.0029 h⁻¹; Rate constant k(Cdk2(R122C)) (Cdk2(R122C) (C177A)): 0.0048 h⁻¹; Rate enhancement, Cdk2 R122C (Cdk2(R122C) (C177A)): 0.07164; Rate constant with Cdk2 R122C (Cdk2(R122C) (C177A)): 0.004819 |
